# Laboratory results taken from ChEMBL document CHEMBL1201862, “PubChem BioAssay data set” (2004).
# Calls of active or inactive are those of the source.
# Key:
# [1] = inhibitors of firefly luciferase expression or activity, dose response, H4 neuroglioma cells, luminescence (AID 1990); format: functional, cell-based
# [2] = inhibitors of SNCA 5'UTR-driven reporter translation, confirmation, H4 neuroglioma cells, luminescence (AID 1988); format: functional, cell-based
# [3] = Luminescence Cell-Based Dose Response HTS to Identify Inhibitors of 5'UTR Stem-Loop Driven Prion Protein mRNA Translation in H4 Neuroglioblastoma Cells. [Related pubchem assays: 1827 (Project Summary), 1813 (Primary HTS)]; format: functional
# [4] = target: T1, Short transient receptor potential channel 4 (Mus musculus, UniProt Q9QUQ5); assay: mouse TRPC4 channel inhibitors, dose response, cell-based, HEK293 TRPC4/mu-opioid, Fluo-4 calcium (AID 434942); format: functional;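 note: potency of inhibitors blocking the TRPC4 calcium response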
# T1 sequence (Q9QUQ5 whole entry): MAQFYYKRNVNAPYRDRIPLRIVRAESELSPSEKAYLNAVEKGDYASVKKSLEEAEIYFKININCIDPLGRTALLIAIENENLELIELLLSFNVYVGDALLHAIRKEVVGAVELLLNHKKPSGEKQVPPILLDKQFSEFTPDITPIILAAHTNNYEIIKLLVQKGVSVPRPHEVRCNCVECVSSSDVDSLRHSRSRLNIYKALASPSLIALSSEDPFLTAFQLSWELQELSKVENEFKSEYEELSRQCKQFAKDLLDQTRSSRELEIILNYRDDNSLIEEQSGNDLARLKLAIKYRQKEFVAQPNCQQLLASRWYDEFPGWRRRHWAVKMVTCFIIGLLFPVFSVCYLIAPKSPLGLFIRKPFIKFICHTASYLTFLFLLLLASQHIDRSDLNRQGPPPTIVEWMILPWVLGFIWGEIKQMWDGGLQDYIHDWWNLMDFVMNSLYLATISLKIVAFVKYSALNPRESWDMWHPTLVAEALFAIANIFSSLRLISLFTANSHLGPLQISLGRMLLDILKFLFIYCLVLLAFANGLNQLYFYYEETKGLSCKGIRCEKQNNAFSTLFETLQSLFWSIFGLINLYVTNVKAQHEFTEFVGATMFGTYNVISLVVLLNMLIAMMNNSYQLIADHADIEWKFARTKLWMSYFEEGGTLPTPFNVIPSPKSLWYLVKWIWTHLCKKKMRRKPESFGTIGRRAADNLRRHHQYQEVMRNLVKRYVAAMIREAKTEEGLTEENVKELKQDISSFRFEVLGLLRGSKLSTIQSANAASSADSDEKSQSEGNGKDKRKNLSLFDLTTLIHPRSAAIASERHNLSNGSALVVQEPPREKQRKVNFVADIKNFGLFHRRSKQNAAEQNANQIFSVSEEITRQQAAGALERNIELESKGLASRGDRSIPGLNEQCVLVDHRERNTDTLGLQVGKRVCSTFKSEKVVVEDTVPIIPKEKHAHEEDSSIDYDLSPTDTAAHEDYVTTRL
# [5] = microbe, parasite or virus in culture; format: functional; conditions: Mycobacterium tuberculosis
# [6] = target: T2, Microphthalmia-associated transcription factor (Homo sapiens, UniProt O75030); assay: TRPM1 promoter luciferase signal decrease, dose response, MITF inhibitor project, cell-based, SK-MEL-5, cherry-picked, set 3 (AID 493073); format: functional
# T2 sequence (O75030 whole entry): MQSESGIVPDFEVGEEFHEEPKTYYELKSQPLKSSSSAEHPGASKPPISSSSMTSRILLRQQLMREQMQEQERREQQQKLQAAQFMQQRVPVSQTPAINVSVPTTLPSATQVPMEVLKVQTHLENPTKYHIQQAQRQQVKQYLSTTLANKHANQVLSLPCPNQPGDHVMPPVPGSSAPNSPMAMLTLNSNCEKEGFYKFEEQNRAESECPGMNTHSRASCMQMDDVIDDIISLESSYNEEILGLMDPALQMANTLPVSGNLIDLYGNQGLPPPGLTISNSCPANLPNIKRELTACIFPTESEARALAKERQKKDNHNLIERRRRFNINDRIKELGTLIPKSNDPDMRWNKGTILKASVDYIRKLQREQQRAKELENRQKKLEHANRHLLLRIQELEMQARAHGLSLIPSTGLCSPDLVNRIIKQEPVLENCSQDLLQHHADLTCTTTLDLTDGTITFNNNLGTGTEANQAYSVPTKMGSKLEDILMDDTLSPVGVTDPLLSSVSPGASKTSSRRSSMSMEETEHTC
# [7] = target: T3, Polyadenylate-binding protein 1 (Homo sapiens, UniProt P11940); assay: PABP1 MLLE–PAM2 interaction inhibitors, dose response, miRNA deadenylation inhibitor project, biochemical, fluorescence polarization, Cy5-PAM2 peptide, secondary (AID 602260); format: functional; conditions: read-out: IC50_Mean
# T3 sequence (P11940 whole entry): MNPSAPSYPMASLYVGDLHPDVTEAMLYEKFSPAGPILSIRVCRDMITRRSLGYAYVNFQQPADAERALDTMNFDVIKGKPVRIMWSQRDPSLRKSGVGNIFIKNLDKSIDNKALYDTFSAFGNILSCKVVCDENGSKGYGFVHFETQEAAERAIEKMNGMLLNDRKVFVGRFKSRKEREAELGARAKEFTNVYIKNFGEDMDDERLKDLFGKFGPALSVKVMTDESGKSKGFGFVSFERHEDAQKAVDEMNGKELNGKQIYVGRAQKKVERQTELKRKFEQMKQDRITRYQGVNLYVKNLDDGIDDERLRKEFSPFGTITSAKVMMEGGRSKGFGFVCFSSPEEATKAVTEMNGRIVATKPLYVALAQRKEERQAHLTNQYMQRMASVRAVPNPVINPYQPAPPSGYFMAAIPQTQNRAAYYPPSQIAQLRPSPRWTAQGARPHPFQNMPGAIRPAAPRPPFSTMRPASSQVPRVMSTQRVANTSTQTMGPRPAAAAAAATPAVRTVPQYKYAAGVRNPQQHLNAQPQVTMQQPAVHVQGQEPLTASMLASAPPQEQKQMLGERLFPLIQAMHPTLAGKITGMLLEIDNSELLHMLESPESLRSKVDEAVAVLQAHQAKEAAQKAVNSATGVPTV
# [8] = target: T3, Polyadenylate-binding protein 1; assay: PABP1 MLLE–PAM2 binding inhibitor potency, dose response, biochemical, fluorescence polarization, FITC-PAM2 peptide (AID 602259); format: functional; conditions: read-out: IC50_Mean
# [9] = CEM21 lymphoblast cell cytotoxicity, dose response, cytotoxicity control for viral fusion inhibitor project, CellTiter-Glo luminescence, cherry-picked (AID 652042); format: functional, cell-based;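 note: potency for signal decrease meaning cytotoxicity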
# [10] = ZM109 Env clade C HIV-1 fusion inhibitors, dose response, HeLa effector, CEM target cells, luciferase, cherry-pick (AID 652058); format: functional, cell-based
# [11] = inhibitors of clade B AD8 Env fusion, dose response, cell-based, cherry-pick (AID 652062); format: functional;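 note: luciferase signal from cell-cell fusion driven by HIV-1 clade B AD8 Env; potency is for inhibitors of fusion seen as a drop in luminescence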
# [12] = inhibitors of HIV Env-driven cell fusion, dose response, cherry-pick (AID 652057); format: functional, cell-based
# [13] = off-target signal loss in HeLa-CEM21 co-culture – HeLa F-luc CTL cells, cherry-picked, counter-screen for HIV-1 Env fusion inhibitor project, dose response (AID 652040); format: functional, cell-based;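 note: potency for signal decrease marking cytotoxic or nonspecific inhibition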
# [14] = inhibitors of intracellular T. cruzi replication, confirmation, NIH3T3 host cells, beta-gal luminescence (AID 2044); format: functional, cell-based;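 note: intracellular parasites grown in NIH/3T3 mouse fibroblasts as host cells; luminescent beta-galactosidase reporter signal from transgenic T. cruzi replicating inside host cells; inhibitors lower the luminescence signal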
# [15] = cytotoxicity toward NIH3T3 fibroblasts, dose response, counter-screen, cell-based, ATP luminescence, mouse fibroblasts (AID 2010); format: functional;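 note: cells exposed to compound for about 90 hours before reading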
# Cytochrome P450 2C9 = Cytochrome P450 2C9 (Homo sapiens, UniProt P11712)
# Chain of Cytochrome P450 2C9 (P11712 whole entry): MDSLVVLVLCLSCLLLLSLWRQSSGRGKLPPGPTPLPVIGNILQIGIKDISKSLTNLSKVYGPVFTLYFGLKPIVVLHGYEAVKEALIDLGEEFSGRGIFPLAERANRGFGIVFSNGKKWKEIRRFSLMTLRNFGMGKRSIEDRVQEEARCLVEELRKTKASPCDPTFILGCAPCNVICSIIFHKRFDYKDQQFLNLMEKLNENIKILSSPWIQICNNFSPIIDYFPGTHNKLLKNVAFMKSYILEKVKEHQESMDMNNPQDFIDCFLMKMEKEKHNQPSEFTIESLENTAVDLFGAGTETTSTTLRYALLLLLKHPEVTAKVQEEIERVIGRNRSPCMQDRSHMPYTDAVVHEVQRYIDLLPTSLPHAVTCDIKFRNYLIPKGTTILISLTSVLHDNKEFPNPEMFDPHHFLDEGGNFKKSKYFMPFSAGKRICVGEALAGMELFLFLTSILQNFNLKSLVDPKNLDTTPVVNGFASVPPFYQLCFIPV
# Cytochrome P450 2C19 = Cytochrome P450 2C19 (Homo sapiens, UniProt P33261); assay: Cytochrome panel assay with activity outcomes. Panel member name: p450-cyp2c19 Compounds with AC50 equal or less than 10 uM are considered active; format: functional; conditions: read-out: AC50
# Chain of Cytochrome P450 2C19 (P33261 whole entry): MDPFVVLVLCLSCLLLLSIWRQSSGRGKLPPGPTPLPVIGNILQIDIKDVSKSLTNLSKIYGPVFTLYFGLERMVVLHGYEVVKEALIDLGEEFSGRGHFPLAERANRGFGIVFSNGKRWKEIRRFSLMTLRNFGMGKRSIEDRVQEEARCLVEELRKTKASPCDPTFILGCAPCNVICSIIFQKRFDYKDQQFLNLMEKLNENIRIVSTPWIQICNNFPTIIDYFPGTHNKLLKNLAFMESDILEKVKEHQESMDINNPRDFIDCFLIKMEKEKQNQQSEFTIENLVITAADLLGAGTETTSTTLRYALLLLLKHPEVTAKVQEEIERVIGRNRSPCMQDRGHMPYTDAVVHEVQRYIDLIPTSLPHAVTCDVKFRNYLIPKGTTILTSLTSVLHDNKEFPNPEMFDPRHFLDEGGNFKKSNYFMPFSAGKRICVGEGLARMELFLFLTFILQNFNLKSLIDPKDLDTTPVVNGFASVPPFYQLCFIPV
# Cytochrome P450 3A4 = Cytochrome P450 3A4 (Homo sapiens, UniProt P08684);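 note: CYP3A4 tested as one member of a cytochrome P450 panel screen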
# Chain of Cytochrome P450 3A4 (P08684 whole entry): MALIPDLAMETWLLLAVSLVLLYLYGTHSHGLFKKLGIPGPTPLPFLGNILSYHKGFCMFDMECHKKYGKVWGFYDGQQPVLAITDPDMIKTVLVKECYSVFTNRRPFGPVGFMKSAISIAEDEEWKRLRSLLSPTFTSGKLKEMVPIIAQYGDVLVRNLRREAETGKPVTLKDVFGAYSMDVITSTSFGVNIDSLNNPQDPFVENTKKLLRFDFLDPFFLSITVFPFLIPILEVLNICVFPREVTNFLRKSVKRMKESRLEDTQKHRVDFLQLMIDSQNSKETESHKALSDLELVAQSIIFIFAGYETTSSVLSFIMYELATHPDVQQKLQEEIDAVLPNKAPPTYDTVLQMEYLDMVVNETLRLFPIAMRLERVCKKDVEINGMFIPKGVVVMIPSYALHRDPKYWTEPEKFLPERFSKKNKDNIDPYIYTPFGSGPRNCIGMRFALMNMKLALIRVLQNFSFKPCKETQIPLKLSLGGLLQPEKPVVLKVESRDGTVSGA
# HEK293 = assay: cells; conditions: Homo sapiens;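 note: cells exposed to compound for 14 hours overnight before viability readout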
# Tumor necrosis factor = Tumor necrosis factor (Homo sapiens, UniProt P01375); assay: TNFa-triggered NF-kB activation inhibitors, SAR follow-up, cell-based, revised (AID 2337); format: functional
# Chain of Tumor necrosis factor (P01375 whole entry): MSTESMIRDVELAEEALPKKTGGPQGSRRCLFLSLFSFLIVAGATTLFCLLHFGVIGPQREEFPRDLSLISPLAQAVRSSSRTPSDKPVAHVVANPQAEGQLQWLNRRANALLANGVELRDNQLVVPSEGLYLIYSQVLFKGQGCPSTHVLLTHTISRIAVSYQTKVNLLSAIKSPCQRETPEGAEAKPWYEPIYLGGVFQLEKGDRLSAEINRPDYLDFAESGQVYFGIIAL
# [16] = intracellular Trypanosoma cruzi inhibitors in host cells – cell-based, plate reader, cherry-pick samples, set 3, dose response (AID 651818); format: functional;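 note: compounds incubated with infected cells for about four days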
# Streptokinase A = target: T4, Streptokinase A (Streptococcus pyogenes serotype M1, UniProt P10520); assay: S. pyogenes streptokinase expression inhibitors, potency, dose response, plasminogen activation absorbance, OD405 (AID 1914); format: functional, Streptococcus pyogenes M1 GAS;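 note: secreted streptokinase activity via plasminogen activation per viability signal from cell pellet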
# T4 sequence (P10520 whole entry): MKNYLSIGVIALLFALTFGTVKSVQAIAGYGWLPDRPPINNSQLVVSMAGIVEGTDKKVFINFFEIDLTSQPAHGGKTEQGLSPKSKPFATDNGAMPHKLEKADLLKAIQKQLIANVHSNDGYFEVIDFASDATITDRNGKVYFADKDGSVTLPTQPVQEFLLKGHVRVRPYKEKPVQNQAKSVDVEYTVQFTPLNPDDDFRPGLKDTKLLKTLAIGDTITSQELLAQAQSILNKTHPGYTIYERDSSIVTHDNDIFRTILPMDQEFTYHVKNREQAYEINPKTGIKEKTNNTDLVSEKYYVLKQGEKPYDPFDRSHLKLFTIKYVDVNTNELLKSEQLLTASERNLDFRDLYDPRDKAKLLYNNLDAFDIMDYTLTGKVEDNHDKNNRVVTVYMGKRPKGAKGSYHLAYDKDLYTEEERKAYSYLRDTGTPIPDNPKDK
# Streptococcus = assay: Group A Streptococcus viability loss, dose response, counter-screen for streptokinase expression inhibitor project, luminescence, BacTiterGlo (AID 1915); format: functional, organism-based;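 note: potency for reduction of bacterial viability or growth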
# [17] = system: Streptococcus sp. 'group A'; assay: growth inhibition of control SK(-) GAS strain, dose response, counter-screen for streptokinase expression inhibitor project, luminescence, kanamycin, BacTiterGlo, confirmation (AID 1900); format: functional, organism-based
# Cytochrome P450 1A2 = target: T5, Cytochrome P450 1A2 (Homo sapiens, UniProt P05177);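 note: PubChem cytochrome P450 panel assay, CYP1A2 panel member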
# T5 sequence (P05177 whole entry): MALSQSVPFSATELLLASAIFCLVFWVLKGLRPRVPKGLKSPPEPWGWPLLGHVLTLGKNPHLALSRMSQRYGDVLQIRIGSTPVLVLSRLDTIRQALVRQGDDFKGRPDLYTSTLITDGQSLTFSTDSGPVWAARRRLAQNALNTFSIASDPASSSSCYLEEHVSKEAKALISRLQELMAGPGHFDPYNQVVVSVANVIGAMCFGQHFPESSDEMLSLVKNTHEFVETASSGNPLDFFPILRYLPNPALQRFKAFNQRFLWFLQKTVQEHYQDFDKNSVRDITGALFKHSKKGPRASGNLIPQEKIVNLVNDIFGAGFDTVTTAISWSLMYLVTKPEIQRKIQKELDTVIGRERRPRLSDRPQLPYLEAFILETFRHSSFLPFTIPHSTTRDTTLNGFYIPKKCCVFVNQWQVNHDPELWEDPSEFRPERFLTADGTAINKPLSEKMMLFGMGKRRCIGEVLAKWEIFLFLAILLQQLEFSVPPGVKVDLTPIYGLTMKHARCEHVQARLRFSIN
compound,measurement,setting,value
NC1=NC2=C(CCCC2)C2(CCCCC2)S1,EC50,[1],> 120 µM (not active)
same,EC50,[2],9.28 µM (active)
same,EC50,[3],34.5 µM (active)
same,EC50,[4],1.19 µM (active)
CC(C)(C)c1ccc(C2C3=C(CCCC3=O)N=C3C2=C(O)c2ccccc23)cc1 (configuration not stated),CC50,[5],> 40 µM (active)
Cc1nc2nc(C)c(NS(=O)(=O)c3ccc4c(c3)CCCC4)c(O)n2n1,AC50,[6],136 µM (active)
O=C(O)c1cc2ccccc2c(N=Nc2cccnc2)c1O,AC50,[6],11.4 µM (active)
Cc1c(N(C)S(=O)(=O)c2cc(C(=O)NCC3CCCO3)ccc2Cl)c(=O)n(-c2ccccc2)n1C (configuration not stated),EC50,[4],1.88 µM (active)
CCOC(=O)C1(CCc2ccccc2)CCN(Cc2cccc3c2OCO3)CC1,EC50,[4],0.668 µM (active)
CNCc1c(OCc2ccccc2)ccc2ccccc12,EC50,[4],3.76 µM (active)
COc1ccc(C)cc1-n1nnnc1SCn1nnc2ccccc2c1=O,IC50,[7],> 66 µM (inactive)
same,IC50,[8],> 66 µM (inactive)
Cc1cccc(Cn2c(C(C)(C)C)cc3cccnc32)c1,EC50,[4],0.531 µM (active)
CN(CC(=O)Nc1cccc(F)c1)C(=O)CNS(=O)(=O)c1ccc(N(C)C)c([N+](=O)[O-])c1,IC50,[7],> 66 µM (inactive)
same,IC50,[8],> 66 µM (inactive)
Cc1c(CCOC(=O)C23CC4CC(CC(C)(C4)C2)C3)sc[n+]1CC(=O)c1ccccc1,AC50,[9],20.5 µM (active)
same,AC50,[10],5.44 µM (active)
same,AC50,[11],8.8 µM (active)
same,AC50,[12],1.96 µM (active)
same,AC50,[13],5.26 µM (active)
CCOC(=O)c1cnc(Nc2nc3ccccc3o2)nc1CSC(=S)N(CC)CC,CC50,[5],28 µM (active)
same,EC50,[14],0.17 µM (active)
same,EC50,[15],> 60 µM (not active)
CN1CCN(C2=C(Cl)C(=O)N(CCc3ccccc3)C2=O)CC1,IC50,[7],> 66 µM (inactive)
same,IC50,[8],49.1 µM (inactive)
COc1ccc(S(=O)(=O)N2CCC[C@H]2C(=O)NC2=NCCS2)cc1,AC50,Cytochrome P450 2C9,inconclusive
same,AC50,Cytochrome P450 2C19,35.5 µM (inconclusive)
same,AC50,Cytochrome P450 3A4,17.8 µM (inconclusive)
CC(=O)N1CCc2cc(S(=O)(=O)N3CCN(c4ccc(Cl)cc4)CC3)ccc21,IC50,HEK293,> 20 µM (inactive)
same,IC50,Tumor necrosis factor,> 20 µM (inactive)
CCOC(=O)C1(Cc2cccc(OC)c2)CCN(Cc2ccc(OC)c(O)c2)CC1,EC50,[4],0.944 µM (active)
CC1(C)CC2=Nc3ccccc3NC(c3ccccc3F)C2=C(O)C1 (configuration not stated),IC50,[7],> 66 µM (inactive)
same,IC50,[8],> 66 µM (inactive)
Cc1noc(C)c1S(=O)(=O)Nc1ccc2c(c1)CC(=O)N([C@H](C)CO)C[C@@H](C)[C@@H](CN(C)Cc1ccc(C(=O)Nc3ccccc3N)cc1)O2,AC50,[16],3.1 µM (active)
Cc1noc(C)c1S(=O)(=O)Nc1ccc2c(c1)CC(=O)N([C@H](C)CO)C[C@@H](C)[C@H](CN(C)Cc1ccc(Cl)c(Cl)c1)O2,AC50,[16],6.32 µM (active)
Cc1ccc(S(=O)(=O)Nc2ccc3c(c2)CC(=O)N([C@@H](C)CO)C[C@@H](C)[C@@H](CN(C)Cc2ccc(-c4ccccc4)cc2)O3)cc1,AC50,[16],3.03 µM (active)
C[C@H]1CN([C@@H](C)CO)C(=O)c2cccc(NS(=O)(=O)c3ccccc3)c2O[C@H]1CN(C)Cc1ccc(Oc2ccccc2)cc1,AC50,[16],6.61 µM (active)
C[C@@H]1CCCCO[C@H](CN(C)CC2CCCCC2)[C@@H](C)CN([C@H](C)CO)C(=O)c2cc(NC(=O)Nc3ccc(F)cc3)ccc2O1,AC50,[16],2.33 µM (active)
COc1ccc(CNC(=O)N(C)C[C@H]2OCc3ccccc3-c3c(n(C)c4ccccc34)C(=O)N([C@H](C)CO)C[C@@H]2C)cc1,AC50,[9],60.8 µM (active)
same,AC50,[10],< 0.26 µM (active)
same,AC50,[11],< 0.26 µM (active)
same,AC50,[12],< 0.26 µM (active)
CN1CC(c2ccc(Cl)c(Cl)c2)[C@@]2(COc3ccccc3C2=O)[C@@]12C(=O)Nc1ccccc12 (some centres not stated),EC50,Streptokinase A,1.55 µM (active)
same,AC50,[9],45.7 µM (active)
same,AC50,[10],9.1 µM (active)
same,EC50,Streptococcus,> 150 µM (not active)
same,AC50,[11],31.3 µM (active)
same,EC50,[17],2.96 µM (active)
same,AC50,[12],9.06 µM (active)
same,AC50,[13],14.7 µM (active)
COc1ccc(CNc2ncnc3ccc(-c4ccccc4CN(C)C)cc23)c(OC)c1,AC50,Cytochrome P450 2C9,inconclusive
same,AC50,Cytochrome P450 1A2,31.6 µM (inconclusive)
